# Reference: publication PMC8301114, “LC-ESI-LTQ-Orbitrap-MS for Profiling the Distribution of Oleacein and Its Metabolites in Rat Tissues” (Antioxidants, 2021)
# “And” between values parts separate entries of the source, which are not always exact repeats. Equal values may be shown once. Marks after values point to notes of the source that are not given here.
# What was measured:
# [1] = Tissue distribution of OLEA and its metabolites after intragastric administration of ROO containing OLEA (LC-ESI-LTQ-Orbitrap-MS); format: in vivo, male Sprague–Dawley rats; settings: for Tissue concentration in heart / Concentration in liver / Concentration in small intestine / Concentration in stomach: mean ± SD; for Detection in heart, spleen, thyroids, lungs, brain, kidney, and skin: 1, 2 and 4.5 h after intragastric OLEA in ROO
# Procedure: (§1) In this study, male Sprague–Dawley rats (body weight 227 ± 11 g) were obtained from Envigo RMS Spain SL (Sant Feliu de Codines, Barcelona, Spain). The animals were acclimated for at least 1 week before the initiation of dosing with free access to food and water. They were kept at 22 ± 2 °C in an air-conditioned room on a 12-h light–12-h dark cycle. Before the experiments, the animals were fasted overnight with water available ad libitum. The experiments were performed in compliance with the Animal Experimentation Ethics Committee of the University of Barcelona, Spain and were approved by the Generalitat de Catalunya (trial no. CEEA 124/16 and no. 6435, respectively).
# (§2) Before the experiment, the ROO (used as a vehicle to dissolve OLEA for intragastric administration) was analyzed by LC-ESI-LTQ-Orbitrap-MS to make sure it was free of phenolic compounds. The liquid–liquid extraction of phenolic compounds in the ROO was performed following previously described procedures. The chromatographic and mass spectrometer conditions were the same as used for the identification of metabolites (Section 2.6). Once the absence of phenolic compounds was confirmed, the OLEA was added to obtain a final concentration of 0.3 mg/mL. This concentration was chosen based on its concentration in commercial EVOO (around 300 mg/kg), and the daily ingestion recommended by the European Food Safety Authority of at least 5 mg of hydroxytyrosol and its derivatives per 20 g of olive oil.
# (§3) The rats were divided into three different groups according to the time of euthanasia: 1 h (n = 4), 2 h (n = 5), and 4.5 h (n = 4). At 0 h, ROO loaded with OLEA standard was supplied to the rats (2.5 mL/300 g body weight) by intragastric administration. Additionally, a control group of rats was maintained under fasting conditions without olive oil ingestion and then similarly euthanized. The gavage volume was established following a good practice guide for substance administration and was lower than the maximum volume of lipid vehicles per kg of rat body weight that prevents elevated plasma corticosterone levels.
# (§4) The rats were anesthetized with isoflurane (IsoFlo, veterinaria Esteve, Barcelona, Spain) and euthanized by exsanguinations at the aforementioned time points after the ROO ingestion. Blood samples were collected in EDTA tubes, centrifuged to obtain the plasma (3000× g, 10 min at 4 °C), and stored at −80 °C until analysis. The gastrointestinal tract (including stomach and small intestine), heart, spleen, thyroids, lungs, brain, kidney, and skin were removed from rats at the designated time points. All tissues were washed with saline solution (NaCl 0.9%) and dried with filter paper. In the case of the intestine, the portion removed was 15 cm from 2 cm posterior to the pyloric sphincter, and the intestine was also washed internally by perfusing the isotonic saline solution several times. Rat tissues were accurately weighed and stored at −80 °C until analysis.
# (§5) For extraction, all samples were slowly thawed in ice. To avoid compound oxidation, the samples were handled in a room with filtered light and kept on ice throughout. The clean-up of the biological matrix (protein precipitation) was performed using a previously developed method.
# A small tissue disruptor (T 10 basic ULTRA-TURRAX®, IKA laboratory technology, Staufen, Germany) was used to homogenize the thawed tissues in a 1:1 ratio (w/v) with water:ACN (1:1 (v/v) with 0.1% ascorbic acid). The samples were then sonicated for 5 min in an ice bath, shaken for 1 min (Vortex-Genie 2) and centrifuged for 10 min (11,000× g, 4 °C). To precipitate the proteins, a volume of 100 µL of the upper layer was blended with cold ACN acidified with formic acid (2%) in a 1:3 (v/v) ratio. After that, the samples were homogenized for 1 min and kept at −20 °C in a freezer for 20 min. Finally, the samples were centrifuged for 10 min (11,000× g, 4 °C) and 100 µL of supernatant was transferred to vials for analysis. […]
# [2] = parameters: method as in PMID 21411025; settings: pH 2.0, after 4 h, partial hydrolysis releasing OH-TY; cited from earlier work
# [3] = parameters: method as in PMID 21411025; settings: in vivo study with rats; cited from earlier work
# [4] = Plasma concentration of OLEA and its metabolites after intragastric administration of ROO containing OLEA (LC-ESI-LTQ-Orbitrap-MS); format: in vivo, male Sprague–Dawley rats
# Procedure: as §1, §2, §3, §4, §5
# Plasma samples were centrifuged for 10 min (11,000× g, 4 °C). Briefly, 100 µL of each sample was deproteinized with ice-cold ACN acidified with formic acid (2%) in a 1:5 (v/v) ratio. The samples were then homogenized for 1 min and kept at −20 °C in a freezer for 20 min. After that, samples were centrifuged (11,000× g, 4 °C, 10 min) and finally, 100 µL of each organic phase was transferred to vials for analysis.
# The metabolic profile was determined by analyzing the samples with LC-ESI-LTQ-Orbitrap-MS. […]
# [5] = parameters: method as in doi:10.1016/j.jff.2016.01.030; settings: stomach at 1 h, another study; cited from earlier work
# [6] = parameters: method as in PMID 30469520, PMID 10745093; settings: moderate lipophilicity; cited from earlier work
# [7] = 1 h after intragastric OLEA 0.3 mg/mL in ROO
# [8] = small intestine, 1 h after intragastric OLEA 0.3 mg/mL in ROO
# [9] = small intestine, 2 h after intragastric OLEA 0.3 mg/mL in ROO
# [10] = small intestine, 4.5 h after intragastric OLEA 0.3 mg/mL in ROO
# [11] = stomach, 1 h after intragastric OLEA 0.3 mg/mL in ROO
# [12] = stomach, 2 h after intragastric OLEA 0.3 mg/mL in ROO
# [13] = stomach, 4.5 h after intragastric OLEA 0.3 mg/mL in ROO
# [14] = 1 h after intragastric OLEA 0.3 mg/mL in ROO, mean ± SD
# [15] = 2 h after intragastric OLEA 0.3 mg/mL in ROO, mean ± SD
# [16] = 4.5 h after intragastric OLEA 0.3 mg/mL in ROO, mean ± SD
# [17] = 2 h after intragastric OLEA 0.3 mg/mL in ROO
# [18] = 4.5 h after intragastric OLEA 0.3 mg/mL in ROO
compound,measurement,setting,value
"CC=C(C=O)C(CC=O)CC(=O)OCCc1ccc(O)c(O)c1 (stereo in doubt) [OLEA, Oleacein]",Tissue concentration in heart,"[1]; heart, 1 h after acute intake of OLEA (0.3 mg/mL) in ROO",0.44 ± 0.07 nmol OLEA equivalents/g tissue and 0.44 ± 0.07 ^a nmol OLEA equivalents/g tissue
same,Tissue concentration in heart,"[1]; heart, 2 h after acute intake of OLEA (0.3 mg/mL) in ROO",0.45 ± 0.04 nmol OLEA equivalents/g tissue and 0.45 ± 0.04 ^a nmol OLEA equivalents/g tissue
same,Tissue concentration in heart,"[1]; heart, 4.5 h after acute intake of OLEA (0.3 mg/mL) in ROO",0.44 ± 0.06 nmol OLEA equivalents/g tissue and 0.44 ± 0.06 ^a nmol OLEA equivalents/g tissue
same,Concentrations detected in the heart,"[1]; heart, all time points",≤ 0.5 nmol OLEA equivalents/g tissue
same,Concentration in liver,[1]; [7],0.28 ± 0.02 nmol OLEA equivalents/g tissue
same,Concentration in small intestine,[1]; [8],2.24 ± 0.14 ^a nmol OLEA equivalents/g tissue
same,Concentration in small intestine,[1]; [9],1.69 ± 0.25 ^b nmol OLEA equivalents/g tissue
same,Concentration in small intestine,[1]; [10],0.51 ± 0.10 ^c nmol OLEA equivalents/g tissue
same,Decrease of concentration in the small intestine relative to Cmax at 1 h,"[1]; small intestine, at 2 h",25%
same,Decrease of concentration in the small intestine relative to Cmax at 1 h,"[1]; small intestine, at 4.5 h",77%
same,Time of Cmax in small intestine,"[1]; small intestine, sampling at 1, 2, 4.5 h",1 h
same,Concentration in stomach,[1]; [11],8.73 ± 0.29 ^a nmol OLEA equivalents/g tissue
same,Concentration in stomach,[1]; [12],7.39 ± 0.25 ^b nmol OLEA equivalents/g tissue
same,Concentration in stomach,[1]; [13],5.77 ± 0.54 ^c nmol OLEA equivalents/g tissue
same,Decrease of concentration in the stomach relative to Cmax at 1 h,"[1]; stomach, at 2 h",16%
same,Decrease of concentration in the stomach relative to Cmax at 1 h,"[1]; stomach, at 4.5 h",34%
same,Time of Cmax in stomach,"[1]; stomach, sampling at 1, 2, 4.5 h",1 h
same,OLEA remaining after incubation at pH 2.0,[2],about 67%
same,Degradation in the gastric region,[3],complete degradation
same,Concentration in plasma,[4]; [14],1.37 ± 0.20 nmol OLEA equivalents/mL and 1.37 ± 0.20 ^a nmol OLEA equivalents/mL
same,Concentration in plasma,[4]; [15],0.65 ± 0.07 ^b nmol OLEA equivalents/mL
same,Concentration in plasma,[4]; [16],0.67 ± 0.10 nmol OLEA equivalents/mL and 0.67 ± 0.10 ^b nmol OLEA equivalents/mL
same,Time of Cmax in plasma,"[4]; sampling at 1, 2, 4.5 h",1 h
"OCCc1ccc(O)c(O)c1 [OH-TY, hydroxytyrosol]",OH-TY concentration in stomach,[5],8.75 ± 1.95 nmols/g digesta
same,"Detection in heart, spleen, thyroids, lungs, brain, kidney, and skin",[1],not detected
same,Concentration in liver,[1]; [7],3.34 ± 0.08 ^b nmol OLEA equivalents/g tissue
same,Concentration in liver,[1]; [17],3.83 ± 0.21 ^a nmol OLEA equivalents/g tissue
same,Concentration in liver,[1]; [18],2.51 ± 0.07 ^c nmol OLEA equivalents/g tissue
same,Concentration in small intestine,[1]; [8],4.71 ± 0.32 ^a nmol OLEA equivalents/g tissue
same,Concentration in small intestine,[1]; [9],3.79 ± 0.29 ^b nmol OLEA equivalents/g tissue
same,Concentration in small intestine,[1]; [10],2.70 ± 0.21 ^c nmol OLEA equivalents/g tissue
same,Concentration in stomach,[1]; [11],13.37 ± 1.27 ^a nmol OLEA equivalents/g tissue
same,Concentration in stomach,[1]; [12],7.81 ± 0.69 ^b nmol OLEA equivalents/g tissue
same,Concentration in stomach,[1]; [13],5.23 ± 0.37 ^c nmol OLEA equivalents/g tissue
same,logP,[6],~ 0.9
same,Share of the total metabolites identified in plasma,[4]; 1 h,20%
same,Share of the total metabolites identified in plasma,[4]; 2 h,22%
same,Share of the total metabolites identified in plasma,[4]; 4.5 h,17%
same,concentration at 1 h,"[4]; male, Sprague-Dawley, rat, oral, 2.5 mg/kg, 1 h after intragastric OLEA 0.3 mg/mL in ROO, mean ± SD",2110 ± 100 nM
same,concentration at 2 h,"[4]; male, Sprague-Dawley, rat, oral, 2.5 mg/kg, 2 h after intragastric OLEA 0.3 mg/mL in ROO, mean ± SD",3020 ± 160 nM
same,concentration at 4.5 h,"[4]; male, Sprague-Dawley, rat, oral, 2.5 mg/kg, 4.5 h after intragastric OLEA 0.3 mg/mL in ROO, mean ± SD",1620 ± 140 nM
elenolic acid [EA],"Detection in heart, spleen, thyroids, lungs, brain, kidney, and skin",[1],not detected
same,Concentration in liver,[1]; [7],1.07 ± 0.06 ^b nmol OLEA equivalents/g tissue
same,Concentration in liver,[1]; [17],1.34 ± 0.08 ^a nmol OLEA equivalents/g tissue
same,Concentration in liver,[1]; [18],0.76 ± 0.02 ^c nmol OLEA equivalents/g tissue
same,Concentration in small intestine,[1]; [8],1.81 ± 0.05 ^a nmol OLEA equivalents/g tissue
same,Concentration in small intestine,[1]; [9],0.67 ± 0.08 ^b nmol OLEA equivalents/g tissue
same,Concentration in small intestine,[1]; [10],0.16 ± 0.02 ^c nmol OLEA equivalents/g tissue
same,Concentration in stomach,[1]; [11],7.53 ± 0.56 ^a nmol OLEA equivalents/g tissue
same,Concentration in stomach,[1]; [12],4.07 ± 0.36 ^b nmol OLEA equivalents/g tissue
same,Concentration in stomach,[1]; [13],1.81 ± 0.13 ^c nmol OLEA equivalents/g tissue
same,logP,[6],~ 0.9
same,Concentration in plasma,[4]; [14],0.43 ± 0.03 ^b nmol OLEA equivalents/mL
same,Concentration in plasma,[4]; [15],0.76 ± 0.04 ^a nmol OLEA equivalents/mL
same,Concentration in plasma,[4]; [16],0.16 ± 0.02 ^c nmol OLEA equivalents/mL
